{
  "source": "patent US12599666B2",
  "about": "“Photolytic compounds and triplet-triplet annihilation mediated photolysis” (University of Massachusetts, priority 2019, dated 2026)",
  "key": {"[1]": {"assay": "Photolytic molecule experiment: TTAP photolytic reaction in solution under LED, HPLC yield", "type": "physicochemical", "description": "Photolytic molecule experiment: The NIR LED (720 nm), far red LED (650 nm), green LED (530 nm), blue LED (476 nm) and deep blue (455 nm) were used for photolytic reactions. […] Then, the solution was excited with a LED (20 mW/cm^2) at 37° C. After the photolytic reaction, the raw product was dried and re-dissolved in CH3CN/H2O=(2/1, v/v) and HPLC was used to analyze the yield of product."}, "[2]": {"assay": "Stern-Volmer photoluminescence quenching of photosensitizers by PPGs-X", "type": "physicochemical", "description": "The Stern-Volmer quenching plots experiment (ksv): photoluminescence of photosensitizers (PtTNP, PdTPBP, PtOEP, and Ir(ppy)3) in the presence of different concentrations of PPGs (BDP, perylene, anthracene and coumarin). The mixed solutions were degassed for at least 15 min with Ar in toluene. The ksv constants were calculated with eq 1, where 1o and It stand for photoluminescence intensity of photosensitizer in the absence of PPGs-X and the photoluminescence intensity of photosensitizer in the presence PPGs-X. Q is the concentration of PPGs-X. Biomolecular quenching constants (kq) were calculated by eq2. The Tr is the phosphorescence lifetime of photosensitizer in argon."}, "[3]": {"assay": "TTA upconversion quantum yield", "type": "physicochemical", "description": "The upconversion quantum yields (ΦUC): The upconversion quantum yields were calculated with the eq 3, where ΦUC and Φstd stand for upconversion luminescence quantum yield of sample TTA-UC and fluorescence quantum yield of reference compounds, respectively. Aunk and Astd stand for absorbance of the TTA-UC and reference compound, respectively. Iunk and Istd stand for integrated upconversion luminescence intensity of the TTA-UC and fluorescence intensity of reference compounds, respectively. ηunk and μstd stand for the refractive index of water. The equation is multiplied by a factor of 2 to make the maximum quantum yield of two unified emitters.\nThe upconversion experiments were deaerated with argon for ca. 15 min before measurement and the argon gas flow was kept during the measurement."}, "[4]": {"assay": "Photophysical parameters of Sen and PPGs (UV-vis absorption, emission, energy levels)", "type": "physicochemical", "design": "λabs maximum absorption wavelength / λem maximum emission wavelength: unit not given here", "conditions": "for 2 × T1 − S1 / S1 singlet excited state: PPGs; for S1 singlet excited state: from maximum fluorescence emission; for λabs maximum absorption wavelength / λem maximum emission wavelength / ξ molar extinction coefficient: in toluene, 10 μM", "description": "Characterization: ^1H NMR spectra were recorded with a Bruker 500 MHz spectrometer. UV-Vis spectra were recorded on an Agilent Cary-5 spectrophotometer. Steady-state fluorescence spectra were measured on a HITACHI F-7000 spectrometer. […] The sample for TEM measurement was prepared by dropping the solution onto a carbon-coated copper grid following negative staining with 2.0% (w/v) phosphotungstic acid. The particle size and size distribution were measured by using dynamic light scattering (DLS) on a Malvern Nano-ZS particle size analyzer, excitation wavelength 532 nm. All samples in the Stern-Volmer quenching plots experiments were deaerated with argon for ca. 15 min before measurement and the gas flow was maintained during the measurements. For the TTA upconversion spectra measurement, the diode pumped solid-state laser (650 nm, continues wave, CW, Hi-Teach company, China) was used as the excitation light source and a modified spectrofluorometer was used to record the upconversion spectra. For the prodrug photolytic experiment, an All LED (Mightex Company) was used as the excitation light source.\nFrom the absorption and emission spectra of Sen and PPGs, the triplet and singlet energy levels of PPG and Sen can be calculated. The maximum emission wavelength of phosphorescence is the triplet excited state energy level (T1) of the Sen. The maximum emission wavelength of fluorescence is the singlet excited state energy level (S1) of the PPGs. Moreover, according to the literature, we know the triplet excited energy levels of PPGs. The detail information is always in […]"}, "[5]": {"conditions": "PPGs, from the literature, cited from earlier work"}, "[6]": {"assay": "Photocleavage quantum yield / photolytic quantum efficiency calculation", "conditions": "for ε1 × Φp: ε (PPGs) × Φp (PPGs); ηp (direct): direct short wavelength illumination", "source_text": "We compared photolytic quantum efficiency of the widely used PPG of Cou by using the UCNPs as phototransducer."}},
  "note": "Where “and” joins values, the source holds several entries; their conditions need not be identical. Equal entries are not always repeated. Where two headings read alike, the source gives them in different places. Marks after values point to notes of the source that are not given here.",
  "data": [
    {"smiles": "CC(=O)OCc1ccc2c3cccc4cccc(c5cccc1c52)c43", "note": "[compound 8]", "values": [
      {"measurement": "photolytic yield", "setting": "[1]", "result": 70, "unit": "%"},
      {"measurement": "Yield (HPLC) of photolytic reaction", "setting": "[1]; PdTPBP, air, room light, 60 min", "result": "No reaction"},
      {"measurement": "Yield (HPLC) of photolytic reaction", "setting": "[1]; PdTPBP, argon, room light, 60 min", "result": "No reaction"},
      {"measurement": "Yield (HPLC) of photolytic reaction", "setting": "[1]; PdTPBP, dark, argon, 1 h", "result": "No reaction"},
      {"measurement": "photolytic yield", "setting": "[1]; PdTPBP, far-red LED light (20 mW/cm^2, 650 nm)", "result": "87% and 87.1%"},
      {"measurement": "Yield (HPLC) of photolytic reaction", "setting": "[1]; PdTPBP, light, air, 1 h", "result": "No reaction"},
      {"measurement": "Yield (HPLC) of photolytic reaction", "setting": "[1]; PdTPBP, light, argon, 1 h", "result": 87.1, "unit": "%"},
      {"measurement": "photolytic yield", "setting": "[1]; PtTNP, NIR LED light (20 mW/cm^2, 720 nm, 1 h)", "result": 14.7, "unit": "%"},
      {"measurement": "Yield (HPLC) of photolytic reaction", "setting": "[1]; PtTNP, dark, argon, 1 h", "result": "No reaction"},
      {"measurement": "Yield (HPLC) of photolytic reaction", "setting": "[1]; PtTNP, light, air, 1 h", "result": "No reaction"},
      {"measurement": "Yield (HPLC) of photolytic reaction", "setting": "[1]; PtTNP, light, argon, 1 h", "result": 14.7, "unit": "%"},
      {"measurement": "Yield (HPLC) of photolytic reaction", "setting": "[1]; compound only (no PdTPBP), far red light, argon, 1 h", "result": "No reaction"},
      {"measurement": "Yield (HPLC) of photolytic reaction", "setting": "[1]; compound only (no PtTNP), NIR light, argon, 1 h", "result": "No reaction"},
      {"measurement": "Yield (HPLC) of photolytic reaction", "setting": "[1]; compound only, air, blue light (445 nm, 20 mW/cm^2), 60 min", "result": 59, "unit": "%"},
      {"measurement": "Yield (HPLC) of photolytic reaction", "setting": "[1]; compound only, air, dark, 60 min", "result": "No reaction"},
      {"measurement": "Yield (HPLC) of photolytic reaction", "setting": "[1]; compound only, air, room light, 60 min", "result": "No reaction"},
      {"measurement": "quenching of the photoluminescence of PdTPBP", "setting": "[2]; PdTPBP", "result": "obvious quenching effects"},
      {"measurement": "ksv (bimolecular quenching constant)", "setting": "[2]; PdTPBP as sensitizer", "result": "1.09 × 10^9 g M^−1S^−1"},
      {"measurement": "ksv Stern-Volmer quenching constant", "setting": "[2]; PdTPBP as sensitizer", "result": 243000, "unit": "g/M"},
      {"measurement": "quenching of the photoluminescence of PtOEP", "setting": "[2]", "result": "significant quenching"},
      {"measurement": "ksv (bimolecular quenching constant)", "setting": "[2]; PtOEP as sensitizer", "result": "2.9 × 10^9 j M^−1S^−1"},
      {"measurement": "ksv Stern-Volmer quenching constant", "setting": "[2]; PtOEP as sensitizer", "result": 262000, "unit": "J/M"},
      {"measurement": "quenching of the photoluminescence of PtTNP", "setting": "[2]; PtTNP", "result": "quenching effect"},
      {"measurement": "upconversion quantum yield", "setting": "[3]; paired with PdTPBP", "result": 5.8, "unit": "%"},
      {"measurement": "upconversion quantum yield", "setting": "[3]; paired with PtOEP", "result": 9.5, "unit": "%"},
      {"measurement": "upconversion quantum yield", "setting": "[3]; paired with PtTNP", "result": 0.05, "unit": "%"},
      {"measurement": "2 × T1 − S1", "setting": "[4]", "result": 0.26, "unit": "eV"},
      {"measurement": "S1 singlet excited state", "setting": "[4]", "result": 2.78, "unit": "eV"},
      {"measurement": "λabs maximum absorption wavelength", "setting": "[4]", "result": 440},
      {"measurement": "λem maximum emission wavelength", "setting": "[4]", "result": 445},
      {"measurement": "ξ molar extinction coefficient", "setting": "[4]", "result": "4.0 10^4 M^−1 cm^−1"},
      {"measurement": "T1 triplet excited state", "setting": "[5]; listed as Py", "result": "1.52 ^m eV and 1.52 eV"},
      {"measurement": "increase of ηp (TTAP) over ηp (direct)", "setting": "[6]; PdTPBP", "result": 282, "unit": "%"},
      {"measurement": "ε2 × Φp: ε (Sen) × Φp (PPGs); ηp (TTAP)", "setting": "[6]; PdTPBP as sensitizer", "result": "10230 ^g"},
      {"measurement": "ε2 × Φp: ε (Sen) × Φp (PPGs); ηp (TTAP)", "setting": "[6]; PdTPBP as sensitizer, listed as Py", "result": 10230},
      {"measurement": "increase of ηp (TTAP) over ηp (direct)", "setting": "[6]; PtOEP", "result": 179, "unit": "%"},
      {"measurement": "ε2 × Φp: ε (Sen) × Φp (PPGs); ηp (TTAP)", "setting": "[6]; PtOEP as sensitizer", "result": "6510 ^j"},
      {"measurement": "ε2 × Φp: ε (Sen) × Φp (PPGs); ηp (TTAP)", "setting": "[6]; PtOEP as sensitizer, listed as Py", "result": 6510},
      {"measurement": "increase of ηp (TTAP) over ηp (direct)", "setting": "[6]; PtTNP", "result": 342, "unit": "%"},
      {"measurement": "ε2 × Φp: ε (Sen) × Φp (PPGs); ηp (TTAP)", "setting": "[6]; PtTNP as photosensitizer", "result": "12400^h"},
      {"measurement": "ε2 × Φp: ε (Sen) × Φp (PPGs); ηp (TTAP)", "setting": "[6]; PtTNP as photosensitizer, listed as Py", "result": 12400},
      {"measurement": "ε1 × Φp: ε (PPGs) × Φp (PPGs); ηp (direct)", "setting": "[6]", "result": 3627}
    ]},
    {"smiles": "CC(=O)OCc1c2ccccc2cc2ccccc12", "note": "[compound 2]", "values": [
      {"measurement": "Yield (HPLC) of photolytic reaction", "setting": "[1]; PtOEP, dark, argon, 1 h", "result": "No reaction"},
      {"measurement": "photolytic yield", "setting": "[1]; PtOEP, green LED light (20 mW/cm^2, 532 nm)", "result": 83, "unit": "%"},
      {"measurement": "Yield (HPLC) of photolytic reaction", "setting": "[1]; PtOEP, light, air, 1 h", "result": "Trace"},
      {"measurement": "Yield (HPLC) of photolytic reaction", "setting": "[1]; PtOEP, light, argon, 1 h", "result": 83.2, "unit": "%"},
      {"measurement": "Yield (HPLC) of photolytic reaction", "setting": "[1]; compound only (no PtOEP), green light, argon, 1 h", "result": "No reaction"},
      {"measurement": "quenching of the photoluminescence of PtOEP", "setting": "[2]", "result": "significant quenching"},
      {"measurement": "ksv (bimolecular quenching constant)", "setting": "[2]; PtOEP as sensitizer", "result": "2.43 × 10^9 j M^−1S^−1"},
      {"measurement": "ksv Stern-Volmer quenching constant", "setting": "[2]; PtOEP as sensitizer", "result": 219000, "unit": "J/M"},
      {"measurement": "upconversion quantum yield", "setting": "[3]; paired with PtOEP", "result": 8.7, "unit": "%"},
      {"measurement": "2 × T1 − S1", "setting": "[4]", "result": 0.53, "unit": "eV"},
      {"measurement": "S1 singlet excited state", "setting": "[4]", "result": 3.02, "unit": "eV"},
      {"measurement": "λabs maximum absorption wavelength", "setting": "[4]", "result": 366},
      {"measurement": "λem maximum emission wavelength", "setting": "[4]", "result": 411},
      {"measurement": "ξ molar extinction coefficient", "setting": "[4]", "result": "1.1 10^4 M^−1 cm^−1"},
      {"measurement": "T1 triplet excited state", "setting": "[5]; listed as An", "result": "1.77 ^n eV and 1.77 eV"},
      {"measurement": "increase of ηp (TTAP) over ηp (direct)", "setting": "[6]; PtOEP", "result": 638, "unit": "%"},
      {"measurement": "ε2 × Φp: ε (Sen) × Φp (PPGs); ηp (TTAP)", "setting": "[6]; PtOEP as sensitizer", "result": "6230 ^j"},
      {"measurement": "ε2 × Φp: ε (Sen) × Φp (PPGs); ηp (TTAP)", "setting": "[6]; PtOEP as sensitizer, listed as An", "result": 6230},
      {"measurement": "ε1 × Φp: ε (PPGs) × Φp (PPGs); ηp (direct)", "setting": "[6]", "result": 979},
      {"measurement": "ε1 × Φp: ε (PPGs) × Φp (PPGs); ηp (direct)", "setting": "[6]; listed as An", "result": 976}
    ]}
  ]
}
